This is an account of results in patent US9532985B2, “Tetrahydroquinoline derivatives for treating post-traumatic stress disorders” (ACTELION PHARMACEUTICALS LTD., priority 2007, dated 2017).

In this assay the test system is fear-potentiated acoustic startle response in Fischer F344 rats. In words: Fear-potentiated startle response in rats. It is filed as in vivo, rat. The text has this: The compounds of formula I can be administered to the animal in order to assess their effects on emotional reactivity.
Signs of decreased emotional reactivity to acoustic stimuli have been discovered in an animal model of fear potentiated acoustic startle. Anxiolytic-like activity—as assessed by decreased acoustic startle reactivity—was observed one hour after treatment with a compound of the formula I compared to vehicle (PEG400) control treatment and to active treatment with diazepam given orally. […] In human medicine, increased acoustic startle reactivity has been observed in patients suffering from PTSD anxiety compared to healthy subjects (Exaggerated acoustic startle reflex in Gulf War veterans with posttraumatic stress disorder, Am. J. Psychiatry (1996), 153(1), 64-68).
In the fear-potentiated startle procedure in rats, a neutral stimulus such as light is repetitively paired with an aversive stimulus such as mild foot shock. When an animal is presented with loud acoustic stimuli, enhanced startle responses are elicited when the startle stimulus is preceded by the light (a classically conditioned increase in fear). Benzodiazepine anxiolytics attenuate the response enhancement. Startle response was recorded by using auditory startle chambers. […]

Consider `CNC(=O)[C@@H](c1ccccc1)N1CCc2cc(OC)c(OC)cc2[C@@H]1CCc1ccc(C(F)(F)F)cc1.Cl` [Compound A, (R)-2-{(S)-6,7-dimethoxy-1-[2-(4-trifluoromethyl-phenyl)-ethyl]-3,4-dihydro-1H-isoquinolin-2-yl}-N-methyl-2-phenyl-acetamide hydrochloride], for which the startle response amplitude result (oral 107 mg/kg, one hour after treatment, compared with vehicle (PEG400) group control 1) is recorded as “reduces in a significant manner the startle response amplitude”.

Take `CN1C(=O)CN=C(c2ccccc2)c2cc(Cl)ccc21` [diazepam]: the startle response amplitude result (oral 3 mg/kg, compared with vehicle group control 2) was “reduces in a significant manner the startle response amplitude”.
